The text below walks through data of patent US20220306617A1, “SUBSTITUTED 1,3-PHENYL HETEROARYL DERIVATIVES AND THEIR USE IN THE TREATMENT OF DISEASE” (NOVARTIS AG, priority 2019, published 2022).

Structures can show the parent of a compound that is named as a salt.

For the experiment, the target named is T1, abc isoform of human TMEM16A channel expressed in CHO cells (Homo sapiens, UniProt Q5XXA6, DEL476-501).
T1 construct: expressed in transfected cells; host or cells: CHO cells, doxycycline-inducible expression under Blasticidin/Zeocin selection
T1 sequence (Q5XXA6 with tags, fused parts or gaps isoform Q5XXA6-5 DEL539-564): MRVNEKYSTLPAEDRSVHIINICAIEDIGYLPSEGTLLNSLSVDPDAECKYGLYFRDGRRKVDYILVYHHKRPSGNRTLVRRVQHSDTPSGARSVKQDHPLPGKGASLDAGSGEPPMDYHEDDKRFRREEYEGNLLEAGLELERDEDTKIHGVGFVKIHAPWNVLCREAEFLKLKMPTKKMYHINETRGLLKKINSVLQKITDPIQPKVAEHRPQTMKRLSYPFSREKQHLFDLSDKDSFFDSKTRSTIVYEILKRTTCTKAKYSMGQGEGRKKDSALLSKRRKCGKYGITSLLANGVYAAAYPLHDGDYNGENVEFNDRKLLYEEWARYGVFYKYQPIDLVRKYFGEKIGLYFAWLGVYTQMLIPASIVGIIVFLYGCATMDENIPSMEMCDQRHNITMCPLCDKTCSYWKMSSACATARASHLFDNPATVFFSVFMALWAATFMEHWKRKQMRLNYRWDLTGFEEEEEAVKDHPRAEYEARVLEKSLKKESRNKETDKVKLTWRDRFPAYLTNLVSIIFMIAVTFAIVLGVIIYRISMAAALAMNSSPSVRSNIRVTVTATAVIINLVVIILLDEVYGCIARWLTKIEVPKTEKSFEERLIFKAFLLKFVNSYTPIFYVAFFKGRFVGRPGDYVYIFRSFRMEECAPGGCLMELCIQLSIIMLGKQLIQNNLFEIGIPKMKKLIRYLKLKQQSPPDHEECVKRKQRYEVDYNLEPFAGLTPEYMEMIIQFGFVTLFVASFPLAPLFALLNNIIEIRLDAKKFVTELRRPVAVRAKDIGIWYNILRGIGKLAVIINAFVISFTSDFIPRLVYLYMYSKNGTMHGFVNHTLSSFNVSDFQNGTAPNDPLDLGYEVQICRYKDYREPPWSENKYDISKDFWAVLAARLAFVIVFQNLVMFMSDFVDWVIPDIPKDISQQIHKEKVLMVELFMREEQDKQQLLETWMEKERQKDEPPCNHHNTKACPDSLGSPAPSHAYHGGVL
Nature of the experiment: Automated patch clamping (QPatch) assay to measure TMEM16A activity in whole-cell. In kind it is cell-based. Particulars: for EC50: CHO cells expressing human TMEM16A (abc), whole-cell automated patch clamp, Hill fit, read-out: TMEM16A QPATCH assay EC50 V3 EC50; for Emax: CHO, maximum current at highest dose relative to reference potentiator at maximal concentration (upper limit) and vehicle (lower limit), read-out: TMEM16A QPATCH assay EC50 V3 Assay Window (% TMEM16A max activation). The method in brief: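 CHO cells with doxycycline-induced (1 μg/mL, 18-24 h) human TMEM16A abc isoform; QPatch whole-cell recording, hold −70 mV, step +70 mV 1500 ms, then −90 to +70 mV ramp. Compounds in 0.3% DMSO; EC50 by Hill fit; % max activation relative to vehicle baseline and reference potentiator maximum.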

Consider `CCC(CC)NC(=O)c1cc(-c2cccc(-c3ncc(C(=O)N[C@H](C(=O)OC(C)(C)C)c4ccccc4)o3)c2)[nH]n1` [Example 1.37, (S)-Tert-Butyl 2-(2-(3-(3-(Pentan-3-Ylcarbamoyl)-1H-Pyrazol-5-yl)Phenyl)Oxazole-5-Carboxamido)-2-Phenylacetate], for which the EC50 (in general, the concentration that produces a half-maximal response) is 200 nM and the Emax is 81%.
For `CCOC(=O)[C@H](Cc1ccccc1)NC(=O)c1cnc(-c2cccc(-c3cc(C(=O)NC(CC)CC)n[nH]3)c2)o1` [Example 1.38, (S)-Ethyl 2-(2-(3-(3-(Pentan-3-Ylcarbamoyl)-1 H-Pyrazol-5-yl)Phenyl)Oxazole-5-Carboxamido)-3-Phenylpropanoate], in that order: 900 nM and 61%.
For `CCC(CC)NC(=O)c1cc(-c2cccc(-c3ncc(C(=O)N[C@@H](C(=O)OC)c4ccccc4)o3)c2)[nH]n1` [Example 1.39, (R)-Methyl 2-(2-(3-(3-(Pentan-3-Ylcarbamoyl)-1H-Pyrazol-5-yl)Phenyl)Oxazole-5-Carboxamido)-2-Phenylacetate], in that order: 880 nM and 66%.
For `CCC(CC)NC(=O)c1cc(-c2cccc(-c3ncc(C(=O)N[C@H](C)C4CC4)o3)c2)[nH]n1` [Example 1.40, (R)-N-(1-Cyclopropylethyl)-2-(3-(5-(Pentan-3-Ylcarbamoyl)-1H-Pyrazol-3-yl)Phenyl)Oxazole-5-Carboxamide] the same measures were 160 nM and 93%.
As to `CCC(CC)NC(=O)c1cc(-c2cccc(-c3ncc(C(=O)N[C@@H](C)C(=O)OCc4ccccc4)o3)c2)[nH]n1` [Example 1.41, (S)-Benzyl 2-(2-(3-(3-(Pentan-3-Ylcarbamoyl)-1H-Pyrazol-5-yl)Phenyl)Oxazole-5-Carboxamido)Propanoate], the EC50 was 950 nM and the Emax worked out at 75%.
For the compound `CCC(CC)NC(=O)c1cc(-c2cccc(-c3ncc(C(=O)N[C@H](C)C4CCCCC4)o3)c2)[nH]n1` [Example 1.42, (R)-N-(1-Cyclohexylethyl)-2-(3-(3-(Pentan-3-Ylcarbamoyl)-1 H-Pyrazol-5-yl)Phenyl)Oxazole-5-Carboxamide], the EC50 was 750 nM and the Emax is 72%.
As to `CCC(CC)NC(=O)c1cc(-c2cccc(-c3ncc(C(=O)NCc4c(F)cccc4F)o3)c2)[nH]n1` [Example 1.43, N-(2,6-Difluorobenzyl)-2-(3-(3-(Pentan-3-Ylcarbamoyl)-1H-Pyrazol-5-yl)Phenyl)Oxazole-5-Carboxamide], the EC50 amounted to 430 nM and the Emax stood at 70%.
With `CCOC(=O)[C@H](NC(=O)c1cnc(-c2cccc(-c3cc(C(=O)NC(CC)CC)[nH]n3)c2)o1)C(C)C` [Example 1.44, (R)-Ethyl 3-Methyl-2-(2-(3-(5-(Pentan-3-Ylcarbamoyl)-1H-Pyrazol-3-yl)Phenyl)Oxazole-5-Carboxamido)Butanoate], the concentration for a half-maximal effect (EC50) was determined as 510 nM and the Emax came out at 69%.
`CCC(CC)NC(=O)c1cc(-c2cccc(-c3ncc(C(=O)N[C@@H](C)CC)o3)c2)[nH]n1` [Example 1.45, (S)-N-(Sec-Butyl)-2-(3-(3-(Pentan-3-Ylcarbamoyl)-1H-Pyrazol-5-Yl)Phenyl)Oxazole-5-Carboxamide]: the EC50 came out at 710 nM and the Emax turned out to be 75%.
For `CCC(CC)NC(=O)c1cc(-c2cccc(-c3ncc(C(=O)N[C@H](C)C(C)C)o3)c2)[nH]n1` [Example 1.46, (R)-N-(3-Methylbutan-2-Yl)-2-(3-(3-(Pentan-3-Ylcarbamoyl)-1 H-Pyrazol-5-yl)Phenyl)Oxazole-5-Carboxamide] the same measures were 990 nM and 19%.
Take `CCC(CC)NC(=O)c1cc(-c2cccc(-c3ncc(C(=O)N[C@H](C(=O)OC)C(C)C)o3)c2)[nH]n1` [Example 1.47, (S)-Methyl 3-Methyl-2-(2-(3-(3-(Pentan-3-Ylcarbamoyl)-1H-Pyrazol-5-yl)Phenyl)Oxazole-5-Carboxamido)Butanoate]: the concentration for a half-maximal effect (EC50) came out at 150 nM and the Emax was determined as 75%.
For `CCC(NC(=O)c1cnc(-c2cccc(-c3cc(C(=O)N[C@@H](C)C4CC4)[nH]n3)c2)o1)C1CC1` (stereo partly drawn) [Example 1.48, 2-(3-(5-(((S)-1-Cyclopropylethyl)Carbamoyl)-1H-Pyrazol-3-Yl)Phenyl)-N-(1-Cyclopropylpropyl)Oxazole-5-Carboxamide], in that order: 70 nM and 59%.
For `COC(=O)C1(NC(=O)c2cnc(-c3cccc(-c4cc(C(=O)N[C@@H](C)C5CC5)[nH]n4)c3)o2)CCC1` [Example 1.49, (S)-Methyl 1-(2-(3-(5-((1-Cyclopropylethyl)Carbamoyl)-1H-Pyrazol-3-Yl)Phenyl)Oxazole-5-Carboxamido)Cyclobutanecarboxylate], in that order: 400 nM and 70%.
In the case of `CCC(CC)NC(=O)c1cc(-c2cccc(-c3ncc(C(=O)N[C@@H](COC(C)(C)C)C(=O)OC(C)(C)C)o3)c2)[nH]n1` [Example 1.50, (S)-Tert-Butyl 3-(Tert-Butoxy)-2-(2-(3-(3-(Pentan-3-Ylcarbamoyl)-1H-Pyrazol-5-Yl)Phenyl)Oxazole-5-Carboxamido)Propanoate Trifluoroacetate], the EC50 is 450 nM and the Emax stood at 115%.
With `CCOC(=O)C(C)(C)NC(=O)c1cnc(-c2cccc(-c3cc(C(=O)NC(CC)CC)n[nH]3)c2)o1` [Example 1.51, Ethyl 2-Methyl-2-(2-(3-(3-(Pentan-3-Ylcarbamoyl)-1H-Pyrazol-5-Yl)Phenyl)Oxazole-5-Carboxamido)Propanoate Trifluoroacetate], the EC50 is 980 nM and the Emax was determined as 64%.
For `CCOC(=O)[C@@H](NC(=O)c1cnc(-c2cccc(-c3cc(C(=O)N[C@@H](C(=O)OC)C(C)C)[nH]n3)c2)o1)C(C)C` [Example 2.0, (S)-Ethyl 2-(2-(3-(5-(((R)-1-Methoxy-3-Methyl-1-Oxobutan-2-Yl)Carbamoyl)-1 H-Pyrazol-3-Yl)Phenyl)Oxazole-5-Carboxamido)-3-Methylbutanoate] the same measures were 140 nM and 87%.
On to `CCOC(=O)[C@@H](NC(=O)c1cnc(-c2cccc(-c3cc(C(=O)N[C@@H](CC(C)C)C(=O)OC)n[nH]3)c2)o1)C(C)C` [Example 2.1, (S)-Methyl 2-(5-(3-(5-(((S)-1-Ethoxy-3-Methyl-1-Oxobutan-2-yl)Carbamoyl)Oxazol-2-Yl)Phenyl)-1H-Pyrazole-3-Carboxamido)-4-Methylpentanoate], for which the EC50 was found to be 30 nM and the Emax stood at 83%.
For `CCOC(=O)[C@@H](NC(=O)c1cc(-c2cccc(-c3ncc(C(=O)N[C@H](C(=O)OCC)C(C)C)o3)c2)[nH]n1)C(C)C` [Example 2.2, (S)-Ethyl 2-(2-(3-(3-(((S)-1-Ethoxy-3-Methyl-1-Oxobutan-2-Yl)Carbamoyl)-1 H-Pyrazol-5-Yl)Phenyl)Oxazole-5-Carboxamido)-3-Methylbutanoate], in that order: 32 nM and 112%.
`CCOC(=O)[C@@H](NC(=O)c1cnc(-c2cccc(-c3cc(C(=O)NC(C(F)F)C4CC4)[nH]n3)c2)o1)C(C)C` (stereo partly drawn) [Example 2.4, (2S)-Ethyl 2-(2-(3-(5-((1-Cyclopropyl-2,2-Difluoroethyl)Carbamoyl)-1H-Pyrazol-3-Yl)Phenyl)Oxazole-5-Carboxamido)-3-Methylbutanoate]: the EC50 turned out to be 20 nM and the Emax was 99%.
